Data taken from paper PMC8857485, “Prostate secretory protein 94 inhibits sterol binding and export by the mammalian CAP protein CRISP2 in a calcium-sensitive manner” (The Journal of Biological Chemistry, 2022).
Where a name gives a salt, the structure may show the parent alone. Read-outs that look alike come from different tables or passages of the source.

Assays:
[1] = biological target: T1, CAP domain of Pry1 (Pry1^CAP) (Saccharomyces cerevisiae, UniProt P47032); test: MST binding to the CAP domain of Pry1
T1 construct: made in house; host or cells: E. coli BL21
Source text: (§1) To confirm the direct interaction of PSP94 with CRISP3 and to test whether PSP94 would also bind other CAP family members such as yeast Pry1, or CRISP2, we performed in vitro protein binding assay using microscale thermophoresis (MST). Therefore, PSP94 and the CAP family members, Pry1, CRISP2, and CRISP3, were expressed as fusion proteins with a C-terminal polyhistidine tag in Escherichia coli, and the proteins were affinity purified on nickel-NTA agarose beads. The purified CAP proteins were then fluorescently labeled using RED-tris-NTA and incubated with varying concentrations of PSP94. […] PSP94 thus has high binding affinity for all three CAP proteins tested, and it also binds the CAP domain of Pry1 (Pry1^CAP) alone.
(§2) DNA encoding proteins of interest were PCR amplified and cloned into NcoI and XhoI restriction sites of pET22b, which contains a PelB signal sequence to direct the secretion of expressed protein into the periplasmic space. […] Protein concentration was determined by Lowry assay using the Folin reagent and bovine serum albumin as protein standard.
(§3) MST experiments were performed to assess protein–protein, protein–lipid, and protein–calcium interactions using a Monolith NT.115 (Nanotemper Technologies). […] The dissociation constant Kd was obtained by plotting the normalized fluorescence (Fnorm) against the logarithm of ligand concentration. […]

[2] = biological target: T2, CRISP2 (Homo sapiens, UniProt P16562); test: MST binding to CRISP2; parameters: species or system mammalian
T2 construct: made in house; host or cells: E. coli BL21
T2 sequence (P16562 22-243): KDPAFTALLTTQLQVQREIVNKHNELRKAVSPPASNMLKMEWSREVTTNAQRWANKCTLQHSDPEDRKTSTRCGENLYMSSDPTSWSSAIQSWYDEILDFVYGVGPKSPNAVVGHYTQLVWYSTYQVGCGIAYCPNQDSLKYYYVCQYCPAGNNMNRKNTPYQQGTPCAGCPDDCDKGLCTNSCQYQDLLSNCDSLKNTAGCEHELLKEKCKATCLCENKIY
Source text: as §1
DNA encoding proteins of interest were PCR amplified and cloned into NcoI and XhoI restriction sites of pET22b, which contains a PelB signal sequence to direct the secretion of expressed protein into the periplasmic space. Plasmids were transformed into E. coli BL21, and proteins were expressed with a C-terminal polyhistidine tag. Different induction strategies were used: overnight induction with lactose at 24 °C for Pry1, CRISP2, and PSP94 and 6 h of induction with 0.4 mM IPTG at 24 °C for the CAP domain of Pry1. Cells were collected and lysed, and the soluble cell lysate was incubated with nickel-nitrilotriacetic acid beads as per the manufacturer instructions (Qiagen). Beads were washed and loaded onto a Ni^2+-NTA column, and proteins were eluted with a buffer containing 60 mM NaH2PO4, 300 mM NaCl, and 300 mM imidazole, pH 8.0. […] Protein concentration was determined by Lowry assay using the Folin reagent and bovine serum albumin as protein standard.
as §3

[3] = biological target: T3, CRISP2 L98G (Homo sapiens, UniProt P16562, L98G); test: MST binding to CRISP2 single mutant L98G; parameters: species or system mammalian; conditions: absence of PSP94, read-out: Kd, sterol binding by CRISP2 L98G
T3 construct: made in house; host or cells: E. coli
Source text: This interaction is thus located outside the hydrophobic loop that harbors the sterol-binding CBM. Based on these structural considerations, it is thus not apparent why and how the interaction between PSP94 and CRISP2 would block sterol binding at the CBM. To investigate this question in more detail, we first performed computational docking studies to identify residues in CRISP2 that are critical for the interaction with PSP94. […] Two of these three interacting residues, N97 and L98, are conserved in all three CAP family members tested here, CRISP2, CRISP3, and Pry1 (Fig. 4A). […]
as §3
Quadruple mutant cells lacking the acyl-CoA synthetases FAA1 and FAA4 and the yeast CAP family members PRY1 and PRY3 (faa1∆ faa4∆ pry1∆ pry3∆) expressing different combinations of plasmid-borne copies of PRY1, CRISP2, and or PSP94, or their respective empty vectors (pRS423 or pRS426) were cultivated overnight. The export of fatty acids into the culture medium was then quantified. […]

[4] = biological target: T4, Pry1 (Saccharomyces cerevisiae, UniProt P47032); test: Microscale thermophoresis (MST) binding to Pry1; conditions: absence of PSP94, read-out: Kd, sterol binding by Pry1
T4 construct: made in house; host or cells: E. coli BL21
Source text: as §1, §2, §3

T1 sequence (P47032 167-281 limits assumed): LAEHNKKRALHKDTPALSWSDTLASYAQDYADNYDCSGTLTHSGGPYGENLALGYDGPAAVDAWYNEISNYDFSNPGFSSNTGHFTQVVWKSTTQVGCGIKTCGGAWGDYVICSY
T3 sequence (P16562 22-243 L98G): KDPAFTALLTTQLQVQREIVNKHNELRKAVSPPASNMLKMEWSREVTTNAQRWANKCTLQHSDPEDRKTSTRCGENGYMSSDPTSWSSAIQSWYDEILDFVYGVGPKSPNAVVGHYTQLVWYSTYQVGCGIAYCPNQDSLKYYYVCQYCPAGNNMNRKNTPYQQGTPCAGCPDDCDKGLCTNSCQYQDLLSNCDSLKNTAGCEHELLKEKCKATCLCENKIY
T4 sequence (P47032 20-299): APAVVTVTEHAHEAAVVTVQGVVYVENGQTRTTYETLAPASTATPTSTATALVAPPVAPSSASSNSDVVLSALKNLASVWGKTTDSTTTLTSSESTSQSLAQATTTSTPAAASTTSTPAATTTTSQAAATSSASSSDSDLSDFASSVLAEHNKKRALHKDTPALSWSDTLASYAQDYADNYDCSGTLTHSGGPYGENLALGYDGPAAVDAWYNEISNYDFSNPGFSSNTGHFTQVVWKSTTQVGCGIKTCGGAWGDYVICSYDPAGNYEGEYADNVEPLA

## CC(C)CCC[C@@H](C)[C@H]1CC[C@H]2[C@@H]3CC=C4C[C@@H](OS(=O)(=O)O)CC[C@]4(C)[C@H]3CC[C@]12C [cholesterol sulfate]
[1]; PSP94^F24G preincubated 5 min at 24 °C, read-out: Kd, sterol binding by Pry1^CAP in presence of PSP94^F24G
  Kd: 4140 ± 920 nM
[1]; absence of PSP94, read-out: Kd, sterol binding by Pry1^CAP
  Kd: 900 ± 1900 nM
[2]; PSP94^F24G preincubated 5 min at 24 °C, read-out: Kd, sterol binding by CRISP2 in presence of PSP94^F24G
  Kd: 9.7 ± 3.04 µM
[2]; absence of PSP94, read-out: Kd, sterol binding by CRISP2
  Kd: 1.6 ± 0.9 µM
[3]
  Kd: 95 ± 2.1 µM
[4]
  Kd: 3 ± 1.7 µM
